According to patent US10059689B2, “Substituted heteroaryl compounds and methods of use” (Sunshine Lake Pharma Co., Ltd., priority 2014, dated 2018):

Experiments:
TYK2 (h) = target: T1, TYK2 (h) (Homo sapiens, UniProt P29597); test: TYK2 (h) kinase assay; format: biochemical
T1 construct: purchased Millipore UK Ltd (contract assay service)
Protocol: Kinase assays can be performed by measurement of incorporation of γ-33P ATP into immobilized myelin basic protein (MBP). High binding white 384 well plates (Greiner) are coated with MBP (Sigma #M-1891) by incubation of 60 μL/well of 20 μg/mL MBP in Tris-buffered saline (TBS; 50 mM Tris pH 8.0, 138 mM NaCl, 2.7 mM KCl) for 24 h at 4° C. Plates are washed 3× with 100 μL TBS. Kinase reactions are carried out in a total volume of 34 μL in kinase buffer (according to the need to make, for example, 5 mM Hepes pH 7.6, 15 mM NaCl, 0.01% bovine gamma globulin (Sigma #I-5506), 10 mM MgCl2, 1 mM DTT, 0.02% TritonX-100). Compound dilutions are performed in DMSO and added to assay wells to a final DMSO concentration of 1%. Each data point is measured in duplicate, and at least two duplicate assays are performed for each individual compound determination. […] A mixture of unlabeled ATP and γ-33P ATP is added to start the reaction (2×10^6 cpm of γ-33P ATP per well (3000 Ci/mmole) and 10 μM unlabeled ATP, typically. The reactions are carried out for 1 h at room temperature with shaking Plates are washed 7× with TBS, followed by the addition of 50 μL/well scintillation fluid (Wallac). Plates are read using a Wallac Trilux counter. This is only one format of such assays; various other formats are possible, as known to one skilled in the art. […]

Aurora-A (h) = target: T2, Aurora-A (h) (Homo sapiens, UniProt O14965); test: Aurora-A (h) kinase assay; format: biochemical
T2 construct: purchased Millipore UK Ltd (contract assay service)
T2 sequence (O14965 1-403): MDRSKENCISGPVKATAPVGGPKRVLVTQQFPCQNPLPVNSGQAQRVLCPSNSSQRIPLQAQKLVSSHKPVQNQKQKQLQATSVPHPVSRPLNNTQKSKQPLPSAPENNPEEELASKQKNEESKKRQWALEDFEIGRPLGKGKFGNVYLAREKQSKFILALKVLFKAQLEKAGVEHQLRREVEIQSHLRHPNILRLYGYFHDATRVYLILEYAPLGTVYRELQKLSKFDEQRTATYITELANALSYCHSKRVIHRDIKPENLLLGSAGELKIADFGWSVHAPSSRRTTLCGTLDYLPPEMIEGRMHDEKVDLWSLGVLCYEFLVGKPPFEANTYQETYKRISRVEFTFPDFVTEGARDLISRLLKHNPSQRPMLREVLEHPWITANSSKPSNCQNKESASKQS
Protocol: Kinase assays can be performed by measurement of incorporation of γ-33P ATP into immobilized myelin basic protein (MBP). High binding white 384 well plates (Greiner) are coated with MBP (Sigma #M-1891) by incubation of 60 μL/well of 20 μg/mL MBP in Tris-buffered saline (TBS; 50 mM Tris pH 8.0, 138 mM NaCl, 2.7 mM KCl) for 24 h at 4° C. Plates are washed 3× with 100 μL TBS. Kinase reactions are carried out in a total volume of 34 μL in kinase buffer (according to the need to make, for example, 5 mM Hepes pH 7.6, 15 mM NaCl, 0.01% bovine gamma globulin (Sigma #I-5506), 10 mM MgCl2, 1 mM DTT, 0.02% TritonX-100). Compound dilutions are performed in DMSO and added to assay wells to a final DMSO concentration of 1%. Each data point is measured in duplicate, and at least two duplicate assays are performed for each individual compound determination. Enzyme is added to final concentrations of 10 nM or 20 nM, for example. A mixture of unlabeled ATP and γ-33P ATP is added to start the reaction (2×10^6 cpm of γ-33P ATP per well (3000 Ci/mmole) and 10 μM unlabeled ATP, typically. The reactions are carried out for 1 h at room temperature with shaking Plates are washed 7× with TBS, followed by the addition of 50 μL/well scintillation fluid (Wallac). Plates are read using a Wallac Trilux counter. This is only one format of such assays; various other formats are possible, as known to one skilled in the art.
The above assay procedure can be used to determine the IC50 for inhibition and/or the inhibition constant, Ki. The IC50 is defined as the concentration of compound required to reduce the enzyme activity by 50% under the condition of the assay. The IC50 value is estimated by preparing a 10 point curve using a ½ log dilution series (for example, a typical curve may be prepared using the following compound concentrations: 3 μM, 1 μM, 0.3 μM, 0.1 μM, 0.03 μM, 0.01 μM, 0.003 μM, 0.001 μM, 0.0003 μM and 0 μM).
Aurora-A (h) is incubated with 8 mM MOPS pH 7.0, 0.2 mM EDTA, 200 μM LRRASLG (Kemptide), 10 mM MgAcetate and [γ-^33P-ATP] […]

T1 sequence (P29597 whole entry): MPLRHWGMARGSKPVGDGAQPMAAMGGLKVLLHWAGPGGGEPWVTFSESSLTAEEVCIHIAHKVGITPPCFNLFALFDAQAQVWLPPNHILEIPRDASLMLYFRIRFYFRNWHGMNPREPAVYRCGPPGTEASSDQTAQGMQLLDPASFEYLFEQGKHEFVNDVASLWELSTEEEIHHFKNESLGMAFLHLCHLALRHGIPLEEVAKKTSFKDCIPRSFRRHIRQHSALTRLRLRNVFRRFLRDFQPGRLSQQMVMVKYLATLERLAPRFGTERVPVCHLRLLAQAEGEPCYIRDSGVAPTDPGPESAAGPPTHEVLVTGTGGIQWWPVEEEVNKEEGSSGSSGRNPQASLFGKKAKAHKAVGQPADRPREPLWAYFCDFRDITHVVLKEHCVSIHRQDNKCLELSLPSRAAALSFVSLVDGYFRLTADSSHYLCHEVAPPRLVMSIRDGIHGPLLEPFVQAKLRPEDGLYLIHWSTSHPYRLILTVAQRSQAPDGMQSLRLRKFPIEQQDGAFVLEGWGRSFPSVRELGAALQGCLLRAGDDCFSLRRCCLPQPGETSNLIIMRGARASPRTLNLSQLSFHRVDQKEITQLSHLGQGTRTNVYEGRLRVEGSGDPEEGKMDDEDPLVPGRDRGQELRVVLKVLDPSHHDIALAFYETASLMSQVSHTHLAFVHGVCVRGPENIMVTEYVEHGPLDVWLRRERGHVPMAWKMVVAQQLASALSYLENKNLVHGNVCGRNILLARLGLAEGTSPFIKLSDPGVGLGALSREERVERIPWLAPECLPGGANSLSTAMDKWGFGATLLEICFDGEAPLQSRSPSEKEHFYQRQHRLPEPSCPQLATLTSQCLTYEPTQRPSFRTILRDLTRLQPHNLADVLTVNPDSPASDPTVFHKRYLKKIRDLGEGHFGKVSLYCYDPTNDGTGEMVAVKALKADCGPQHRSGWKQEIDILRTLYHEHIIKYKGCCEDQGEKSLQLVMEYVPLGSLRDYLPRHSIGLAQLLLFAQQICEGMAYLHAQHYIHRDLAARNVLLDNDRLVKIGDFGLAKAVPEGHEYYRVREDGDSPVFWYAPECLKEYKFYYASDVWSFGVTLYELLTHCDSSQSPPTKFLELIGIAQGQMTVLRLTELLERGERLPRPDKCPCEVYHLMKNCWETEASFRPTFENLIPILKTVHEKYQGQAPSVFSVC

Row | IC50 (TYK2 (h)) | IC50 (Aurora-A (h)) | SMILES
1 | 22 nM | 66 nM | CN(c1nc(Nc2cnn(C)c2)ncc1Cl)C1CCN(c2ccc(C#N)cn2)CC1 [Ex. 5, 6-(4-((5-chloro-2-((1-methyl-1H-pyrazol-4-yl)amino)pyrimidin-4-yl) (methyl)amino)piperidin-1-yl)nicotinonitrile]
2 | 2 nM | 503 nM | Cc1c2ccc(Nc3ncc(Cl)c(NC4CCN(c5ccc(C#N)cn5)CC4)n3)cc2nn1C [Ex. 4]
3 |  | 68 nM | Cn1cc(Nc2ncc(Cl)c(NC3CCN(c4ccc(C#N)cn4)CC3)n2)cn1 [Ex. 1, 6-(4-((5-chloro-2-((1-methyl-1H-pyrazol-4-yl)amino)pyrimidin-4-yl)amino)piperidin-1-yl)nicotinonitrile]
